From ChEMBL document CHEMBL1145657, “Chemistry of Acronycine I. Carbon- 13 NMR Studies of Acronycine and Related Compounds” (J Nat Prod, 1983)
Activity calls are given as the source filed them. The rule behind the calls is not given here.

Test system: KB
Experiment: Cytotoxicity against human KB cells
Format: functional, cell-based

Row | Compound | Activity
1 | Cn1c2ccccc2c(=O)c2c(O)cc3c(c21)C=CC(C)(C)O3 | inactive
2 | Cn1c2ccccc2c(=O)c2c(O)cc3c(c21)CCC(C)(C)O3 | inactive
